Measured values: ChEMBL document CHEMBL1201862, “PubChem BioAssay data set” (2004)
Counter-ions that a name gives are not always drawn. The source made the active and inactive calls.

Legend:
[1] = P. falciparum 3D7-ScDHODH growth inhibitors, dose response, SYBR Green, dry powder samples (AID 1159570); format: functional, cell-based;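 also: parasite growth measured after 72 hours of compound exposure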
[2] = P. falciparum Dd2 growth inhibitors, dose response, SYBR Green, cherry-picked samples (AID 1159567); format: functional, cell-based
[3] = Plasmodium falciparum Dd2 Sybr green parasite growth Measured in Cell-Based and Microorganism Combination System Using Plate Reader - 2153-01_Inhibitor_Dose_DryPowder_Activity_Set3.; format: functional
[4] = P. falciparum ATP4 D1247Y mutant growth inhibitors, dose response, NITD609-resistant line, SYBR Green, dry powder (AID 1159571); format: functional, cell-based;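 also: parasites synchronized at ring stage by sorbitol before testing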
[5] = P. falciparum Dd2 growth inhibitors, dose response, SYBR Green, dry powder samples (AID 1159566); format: functional, cell-based;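 also: potency for growth inhibition with lower SYBR green DNA signal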
[6] = HEK293 cell cytotoxicity, dose response, cytotoxicity control, plate reader, cherry-picked samples (AID 743446); format: functional, cell-based
[7] = MC4R antagonists, dose response, counter-screen for LGR2 antagonist project, cell-based, plate reader, cherry pick (AID 743444); format: functional;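 also: transfected HEK 293 cells stimulated with alpha-MSH peptide; potency of inhibitors of the alpha-MSH evoked signal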
[8] = A549 cell cytotoxicity, dose response, cytotoxicity control, cherry-picks, 26 µM top dose (AID 1053119); format: functional, cell-based
[9] = P. falciparum Dd2 growth inhibitors, dose response, SYBR Green, dry powder samples, set 9 (AID 1159568); format: functional, cell-based
[10] = CEM21 lymphoblast cell cytotoxicity, dose response, cytotoxicity control for viral fusion inhibitor project, CellTiter-Glo luminescence, cherry-picked (AID 652042); format: functional, cell-based;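 also: potency for signal decrease meaning cytotoxicity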
[11] = LGR2 antagonists, dose response, cell-based, HEK293, CRE-luciferase reporter, cherry pick, set 2 (AID 743343); format: functional;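 also: transfected cells were stimulated with diluted bursicon conditioned medium after compound addition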
[12] = A549 cell cytotoxicity, dose response, cytotoxicity control, plate reader, cherry-pick, antagonist series (AID 743412); format: functional, cell-based
[13] = HepG2 cell cytotoxicity, dose response, cytotoxicity control, cherry-picks, set 5 (AID 1053118); format: functional, cell-based
[14] = HepG2 cell cytotoxicity, dose response, cytotoxicity control, plate reader, cherry-pick, antagonist series (AID 743416); format: functional, cell-based
[15] = target: Induced myeloid leukemia cell differentiation protein Mcl-1 (Homo sapiens, UniProt Q07820); format: functional
Sequence of Induced myeloid leukemia cell differentiation protein Mcl-1 (Q07820 whole entry): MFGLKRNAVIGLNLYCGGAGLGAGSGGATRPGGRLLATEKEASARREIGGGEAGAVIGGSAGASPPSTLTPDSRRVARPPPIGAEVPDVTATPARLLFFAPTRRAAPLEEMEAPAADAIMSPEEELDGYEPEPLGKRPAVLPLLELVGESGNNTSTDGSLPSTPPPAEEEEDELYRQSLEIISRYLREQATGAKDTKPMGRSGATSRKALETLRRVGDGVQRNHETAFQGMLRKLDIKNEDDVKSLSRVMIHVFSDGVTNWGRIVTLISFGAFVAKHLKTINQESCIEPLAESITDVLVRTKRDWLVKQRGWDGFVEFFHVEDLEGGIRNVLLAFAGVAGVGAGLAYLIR

[16] = system: P388; experiment: cells; format: functional; conditions: Mus musculus, P388
[17] = system: Streptococcus sp. 'group A'; experiment: growth inhibition of control SK(-) GAS strain, dose response, counter-screen for streptokinase expression inhibitor project, luminescence, kanamycin, BacTiterGlo, confirmation (AID 1900); format: functional, organism-based
[18] = system: Streptococcus; experiment: Group A Streptococcus viability loss, dose response, counter-screen for streptokinase expression inhibitor project, luminescence, BacTiterGlo (AID 1915); format: functional, organism-based;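 also: potency for reduction of bacterial viability or growth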
[19] = system: SN12K1; experiment: cells; format: functional; conditions: Homo sapiens, SN12K1
[20] = Luminescence-based dose response cell-based high throughput screening assay for cytotoxic compounds using the IEC-6 intestinal epithelial cell line. [Related pubchem assays: 1858 (Summary AID.), 1825 (Counterscreen.), 1907 (Confirmation screen.)]; format: functional
[21] = target: T1, Streptokinase A (Streptococcus pyogenes serotype M1, UniProt P10520); experiment: S. pyogenes streptokinase expression inhibitors, potency, dose response, plasminogen activation absorbance, OD405 (AID 1914); format: functional, Streptococcus pyogenes M1 GAS;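 also: secreted streptokinase activity via plasminogen activation per viability signal from cell pellet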
T1 sequence (P10520 whole entry): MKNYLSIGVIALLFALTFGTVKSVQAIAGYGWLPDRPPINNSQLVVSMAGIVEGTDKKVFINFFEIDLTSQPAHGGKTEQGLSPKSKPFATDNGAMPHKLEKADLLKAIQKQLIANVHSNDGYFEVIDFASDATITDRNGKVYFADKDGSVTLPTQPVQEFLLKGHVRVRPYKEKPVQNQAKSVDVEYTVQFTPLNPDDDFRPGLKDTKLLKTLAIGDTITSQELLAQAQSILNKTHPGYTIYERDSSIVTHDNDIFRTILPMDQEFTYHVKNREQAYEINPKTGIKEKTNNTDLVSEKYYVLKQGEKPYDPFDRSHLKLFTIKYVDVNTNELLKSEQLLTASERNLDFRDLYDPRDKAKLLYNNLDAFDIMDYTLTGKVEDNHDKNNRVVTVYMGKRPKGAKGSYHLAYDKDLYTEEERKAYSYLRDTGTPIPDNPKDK

[22] = system: P388/ADR; experiment: cells; format: functional; conditions: Mus musculus
[23] = inhibitors of Bluetongue virus cytopathic effect, confirmation, arbovirus, BSR cells (AID 1250); format: functional;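 also: protection from viral cytopathic effect measured as cell viability by ATP luminescence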
[24] = target: Sphingosine 1-phosphate receptor 2 (Homo sapiens, UniProt O95136); experiment: Dose Response Cell Based Assay for Agonists of the S1P2 Receptor of Purchased Analogues. [Related pubchem assays: 729, 843, 854, 736 ]; format: functional
Sequence of Sphingosine 1-phosphate receptor 2 (O95136 whole entry): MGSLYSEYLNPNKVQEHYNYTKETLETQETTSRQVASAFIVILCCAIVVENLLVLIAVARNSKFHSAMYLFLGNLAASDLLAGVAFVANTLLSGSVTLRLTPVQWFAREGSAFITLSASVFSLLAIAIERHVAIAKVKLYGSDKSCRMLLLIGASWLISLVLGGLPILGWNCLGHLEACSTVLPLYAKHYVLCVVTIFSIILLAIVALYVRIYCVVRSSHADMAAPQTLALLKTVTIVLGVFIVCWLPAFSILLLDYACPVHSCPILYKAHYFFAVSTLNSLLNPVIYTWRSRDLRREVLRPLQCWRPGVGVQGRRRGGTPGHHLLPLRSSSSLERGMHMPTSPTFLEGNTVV

[25] = target: 5-hydroxytryptamine receptor 1A (Homo sapiens, UniProt P08908); format: functional
Sequence of 5-hydroxytryptamine receptor 1A (P08908 whole entry): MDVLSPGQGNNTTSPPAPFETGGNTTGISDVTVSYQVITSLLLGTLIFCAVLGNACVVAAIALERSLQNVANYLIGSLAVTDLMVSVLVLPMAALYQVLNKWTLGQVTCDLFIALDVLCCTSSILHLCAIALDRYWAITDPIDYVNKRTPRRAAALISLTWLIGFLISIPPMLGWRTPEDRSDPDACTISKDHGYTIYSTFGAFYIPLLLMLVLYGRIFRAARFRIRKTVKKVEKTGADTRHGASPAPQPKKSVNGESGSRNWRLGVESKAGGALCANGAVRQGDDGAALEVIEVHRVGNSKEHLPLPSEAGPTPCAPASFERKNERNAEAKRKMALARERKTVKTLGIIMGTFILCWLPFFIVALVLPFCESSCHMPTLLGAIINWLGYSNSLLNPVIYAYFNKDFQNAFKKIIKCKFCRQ

[26] = target: T2, SUMO-activating enzyme (Homo sapiens, UniProt Q9UBT2); experiment: inhibitors of in vitro SUMOylation cascade, primary screen, biochemical, HTRF, uHTS (AID 2006); format: protein-complex assay
T2 sequence (Q9UBE0 whole entry): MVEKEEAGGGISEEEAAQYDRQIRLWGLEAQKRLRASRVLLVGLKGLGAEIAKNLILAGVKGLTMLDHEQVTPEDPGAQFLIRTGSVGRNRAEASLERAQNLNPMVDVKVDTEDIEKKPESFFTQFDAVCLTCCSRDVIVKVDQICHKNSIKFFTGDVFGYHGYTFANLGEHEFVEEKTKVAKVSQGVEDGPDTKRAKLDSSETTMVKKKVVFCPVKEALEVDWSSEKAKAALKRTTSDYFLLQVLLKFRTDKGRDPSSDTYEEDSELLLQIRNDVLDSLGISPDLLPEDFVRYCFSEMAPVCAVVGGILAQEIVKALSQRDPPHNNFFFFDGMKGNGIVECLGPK
T2 sequence (Q9UBT2 whole entry): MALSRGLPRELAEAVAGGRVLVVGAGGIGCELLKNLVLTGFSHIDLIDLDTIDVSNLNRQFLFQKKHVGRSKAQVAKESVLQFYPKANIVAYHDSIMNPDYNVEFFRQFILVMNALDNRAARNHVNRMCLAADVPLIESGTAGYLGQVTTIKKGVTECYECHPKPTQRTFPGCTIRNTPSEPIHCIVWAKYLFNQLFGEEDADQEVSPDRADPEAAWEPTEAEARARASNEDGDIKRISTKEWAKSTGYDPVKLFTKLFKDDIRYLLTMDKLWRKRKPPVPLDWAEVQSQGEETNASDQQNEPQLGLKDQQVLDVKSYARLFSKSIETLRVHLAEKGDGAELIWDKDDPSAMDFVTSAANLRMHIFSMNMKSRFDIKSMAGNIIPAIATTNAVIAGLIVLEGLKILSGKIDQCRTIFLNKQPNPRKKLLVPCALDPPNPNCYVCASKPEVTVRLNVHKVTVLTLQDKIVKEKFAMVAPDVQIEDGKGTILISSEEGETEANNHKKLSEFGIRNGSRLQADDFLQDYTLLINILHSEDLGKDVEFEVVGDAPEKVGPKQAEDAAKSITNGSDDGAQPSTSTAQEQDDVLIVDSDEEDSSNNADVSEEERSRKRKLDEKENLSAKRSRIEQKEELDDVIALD

[27] = target: T2, SUMO-activating enzyme; experiment: SUMOylation inhibitor hit validation, confirmation, SUMOylation inhibitor project, biochemical, AlphaScreen (AID 2018); format: functional
[28] = target: Genome polyprotein (Hepatitis C virus, UniProt Q2Q167); experiment: HCV core protein dimerization inhibitors, dose response, biochemical, TR-FRET (AID 2159); set-up: species or system Hepacivirus hominis;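 also: blocks dimerization of HCV core protein measured by TR-FRET between tagged core106 pairs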
Sequence of Genome polyprotein (Q2Q167 whole entry, the tested form may be a part): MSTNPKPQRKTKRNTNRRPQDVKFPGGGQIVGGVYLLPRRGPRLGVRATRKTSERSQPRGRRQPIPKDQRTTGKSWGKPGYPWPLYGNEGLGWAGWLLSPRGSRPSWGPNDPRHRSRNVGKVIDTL

[29] = target: Disintegrin and metalloproteinase domain-containing protein 17 (Homo sapiens, UniProt P78536); experiment: exosite inhibitors of ADAM17, dose response, biochemical (AID 743260)
Sequence of Disintegrin and metalloproteinase domain-containing protein 17 (P78536 whole entry, the tested form may be a part): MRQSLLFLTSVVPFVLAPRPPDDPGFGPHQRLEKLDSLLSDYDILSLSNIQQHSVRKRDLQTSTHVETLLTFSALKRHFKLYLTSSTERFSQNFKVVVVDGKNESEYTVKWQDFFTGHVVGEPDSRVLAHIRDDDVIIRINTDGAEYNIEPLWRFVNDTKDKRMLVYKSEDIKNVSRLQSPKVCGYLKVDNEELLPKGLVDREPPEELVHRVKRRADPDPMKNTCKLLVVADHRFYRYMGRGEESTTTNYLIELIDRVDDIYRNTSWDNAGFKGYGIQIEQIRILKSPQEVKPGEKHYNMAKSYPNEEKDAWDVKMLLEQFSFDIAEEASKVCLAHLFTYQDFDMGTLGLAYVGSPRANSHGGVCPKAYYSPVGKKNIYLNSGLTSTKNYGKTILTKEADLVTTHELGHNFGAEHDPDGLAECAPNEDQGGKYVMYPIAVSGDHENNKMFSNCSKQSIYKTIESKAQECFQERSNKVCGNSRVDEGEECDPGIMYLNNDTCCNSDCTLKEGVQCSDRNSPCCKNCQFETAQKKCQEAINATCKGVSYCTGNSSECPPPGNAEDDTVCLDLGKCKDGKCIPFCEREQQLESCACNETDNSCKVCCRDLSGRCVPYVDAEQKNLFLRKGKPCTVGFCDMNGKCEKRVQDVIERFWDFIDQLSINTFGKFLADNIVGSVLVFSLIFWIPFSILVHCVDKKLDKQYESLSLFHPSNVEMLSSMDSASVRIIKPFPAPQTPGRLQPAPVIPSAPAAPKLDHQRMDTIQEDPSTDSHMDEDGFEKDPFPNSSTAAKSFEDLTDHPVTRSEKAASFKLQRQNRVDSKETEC

[30] = target: Mitogen-activated protein kinase 10 (Homo sapiens, UniProt P53779); experiment: Dose response biochemical screening assay for inhibitors of c-Jun N-Terminal Kinase 3 (JNK3). [Related pubchem assays: 746 ]
Sequence of Mitogen-activated protein kinase 10 (P53779 whole entry): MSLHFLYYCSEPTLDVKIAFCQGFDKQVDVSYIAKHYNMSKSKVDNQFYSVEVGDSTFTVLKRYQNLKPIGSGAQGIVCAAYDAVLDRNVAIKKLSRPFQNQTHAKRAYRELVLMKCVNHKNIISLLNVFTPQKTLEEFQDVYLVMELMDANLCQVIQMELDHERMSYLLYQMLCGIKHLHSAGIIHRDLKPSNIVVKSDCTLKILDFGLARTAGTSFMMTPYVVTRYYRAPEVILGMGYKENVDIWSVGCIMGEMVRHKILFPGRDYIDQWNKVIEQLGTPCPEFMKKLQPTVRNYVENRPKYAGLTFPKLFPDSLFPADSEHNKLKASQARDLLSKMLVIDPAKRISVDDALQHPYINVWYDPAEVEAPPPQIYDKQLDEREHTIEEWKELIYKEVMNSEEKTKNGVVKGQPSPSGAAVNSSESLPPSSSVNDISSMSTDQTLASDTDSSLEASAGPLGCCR

[31] = ADAM10 protease inhibitors, dose response, selectivity assay for ADAM17 exosite inhibitor project, biochemical, FRET peptide substrate, recombinant human ADAM10 (AID 743259);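 also: ADAM10 enzyme cleaving a FRET peptide substrate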
[32] = Luminescent dose response cell-based high throughput screening assay for inhibitors of the Janus kinase 2 mutant JAK2V617F. [Related pubchem assays: 1446 (Primary screen.), 1521 (Confirmation assay.), 1486 (Counter screen.)]; format: functional
[33] = RKO cell viability reduction, dose response, CellTiter-Glo luminescence (AID 1117322); format: functional
[34] = cytotoxicity toward Colo320 cells – cell-based, CellTiter-Glo luminescence, IC50, dose response (AID 1117334); format: functional; conditions: COLO 320
[35] = cytotoxicity toward HCT116 cells – cell-based, CellTiter-Glo luminescence, IC50, dose response (AID 1117332); format: functional; conditions: HCT-116
[36] = Concentration-dependent survival of SW480 colon cancer line, luminescence detection with CellTiter-Glo, half-maximal inhibitory concentration (AID 1117338); format: functional
[37] = HCT116 cell viability decrease, GSK3B pretreatment – CellTiter-Glo, IC50, dose response (AID 1117339); format: functional; conditions: HCT-116
[38] = CellTiter-Glo luminescent dose response of DLD-1 viability loss (AID 1117352); format: functional
[39] = cytotoxicity toward HT-29 cells – cell-based, CellTiter-Glo luminescence, IC50, dose response (AID 1117330); format: functional
[40] = SNU-C1 cell viability reduction, dose response, CellTiter-Glo luminescence (AID 1117323); format: functional, cell-based

N#C[C@H]1[C@@H](c2ccc(C#CC3CCCC3)cc2)[C@@H](CO)N1S(=O)(=O)Cc1ccccc1
AC50 [1]: 2.06 µM (active) | AC50 [2]: 2.73 µM (active) | AC50 [3]: 3.05 µM (active) | AC50 [4]: 3.23 µM (active) | AC50 [5]: 0.982 µM (active)

O=C(C[C@@H]1C[C@@H]2c3cc(NC(=O)c4ccc5c(c4)OCO5)ccc3O[C@@H]2[C@@H](CO)O1)NCc1ccc(Oc2ccccc2)cc1
AC50 [6]: 24.7 µM (active) | AC50 [7]: 7.28 µM (active) | AC50 [8]: 30.2 µM (active) | AC50 [9]: 5.69 µM (active) | AC50 [10]: 26.1 µM (active) | AC50 [11]: 33.3 µM (active) | AC50 [12]: 21.2 µM (active) | AC50 [13]: 37.1 µM (active) | AC50 [14]: 27.7 µM (active)

CN(C)c1ccc(/C=N/N(Cc2ccccc2)c2ccccc2)cc1
IC50 [15]: 1.52 µM (not active)

N=c1ccn2c(n1)O[C@H]1[C@H](O)[C@@H](CO)O[C@H]12 [ANCITABINE HYDROCHLORIDE]
GI50 [16]: 0.103 µM (active) | EC50 [17]: 3.2 µM (active) | EC50 [18]: 53.1 µM (active) | GI50 [19]: 0.191 µM (active) | IC50 [20]: 1.79 µM (active) | EC50 [21]: > 150 µM (not active) | GI50 [22]: 0.205 µM (active)

N#Cc1c(O)nc(SCC(=O)Nc2nnc(C(F)(F)F)s2)nc1-c1ccccc1
IC50 [23]: 28.1 µM (active)

Cc1cc(C(=O)COC(=O)C(O)c2ccccc2)c(C)n1Cc1ccccc1 (stereo not given)
EC50 [24]: > 30 µM (not active)

CCOC(=O)C1CCN(C(=O)Cc2c(C(=O)O)n(C)c3ccccc23)CC1
EC50 [25]: > 50 µM (not active)

COc1ccccc1/C=C/C=c1\sc2nc(=O)c(Cc3ccccc3)nn2c1=O
IC50 [26]: 11.8 µM (active) | IC50 [27]: 8.53 µM (active) | IC50 [28]: > 49.8 µM (not active)

C=C(C)COc1ccc(-c2nc(N)ncc2-c2ccc(OC)cc2)c(O)c1
IC50 [29]: > 69.5 µM (inactive) | IC50 [30]: 29.4 µM (not active) | IC50 [31]: > 69.5 µM (inactive)

Cc1nn2c(NCc3ccccn3)c3c(nc2c1-c1ccccc1)CCC3
IC50 [32]: 1.03 µM (active)

CCCCCCCC(=O)OCC(COC(=O)CCCCCCC)OC(=O)CCCCCCC [TRICAPRILIN]
IC50 [33]: > 20 µM (inactive) | IC50 [34]: > 20 µM (inactive) | IC50 [35]: > 20 µM (inactive) | IC50 [36]: > 20 µM (inactive) | IC50 [37]: > 20 µM (inactive) | IC50 [38]: > 20 µM (inactive) | IC50 [39]: > 20 µM (inactive) | IC50 [40]: > 20 µM (inactive)
